Tests used:
[1] = Toxicity, LD50 (male mice); details: mouse, in vivo
[2] = system: cows seized by ketosis; assay: Pharmacological test: oral administration of granules to cows seized by ketosis once daily for 6 weeks, blood and urine components with time; assay type: in vivo; on Ketone bodies in urine: key: +++: Detected noticeably; ++: Detected clearly; +: Slightly detected; -: Not detected
Description: Pharmacological tests for the active ingredient of pharmaceutical composition of the present invention were conducted, by making the active ingredient into granules as in Example 1 and forcibly administering the granules orally to cows seized by ketosis in a predetermined dose once daily for 6 weeks. Examinations of various check items were made for bloods and urines taken from the cows before and 1, 3 and 6 weeks after the administration. In serum biochemical diagnosis, bloods were taken, coagulated and then subjected to centrifugation (3,000 rpm, 15 min.) to obtain respective serums and these serums were used. Blood sugar level was determined by a method using a glucose oxidase; free fatty acids were determined by an ACS-ACO-POD method; and ketone bodies in blood were determined by a diffusion colorimetry using salicyl aldehyde (THIN-ROBERTSON method). Ketone bodies in urine were determined by the use of Labstix (Sankyo Miles).
50 Parts of a compound No. 6, 15.0 parts of light silicic acid anhydride, 5.0 parts of precipitated calcium carbonate, 5.0 parts of corn starch, 2.0 parts of crystalline cellulose, 5.0 parts of a polyvinyl alcohol and 30 parts of water are homogeneously mixed and kneaded. Then, the mixture is ground, pelletized, dried and sifted to prepare granules. The granules are used for curing of ketosis of cows.

[3] = system: male mice; assay: Toxicity, LD50 (male mice); details: male mice
[4] = 25 mg/kg oral once daily, 1 week after adm.
[5] = 25 mg/kg oral once daily, 3 weeks after adm.
[6] = 25 mg/kg oral once daily, 6 weeks after adm.
[7] = 25 mg/kg oral once daily, before adm.
[8] = 77.2 mg/kg oral once daily, 1 week after adm.
[9] = 77.2 mg/kg oral once daily, 3 weeks after adm.
[10] = 77.2 mg/kg oral once daily, 6 weeks after adm.
[11] = 77.2 mg/kg oral once daily, before adm.
[12] = 50 mg/kg oral once daily, 1 week after adm.
[13] = 50 mg/kg oral once daily, 3 weeks after adm.
[14] = 50 mg/kg oral once daily, 6 weeks after adm.
[15] = 50 mg/kg oral once daily, before adm.
[16] = 100 mg/kg oral once daily, 1 week after adm.
[17] = 100 mg/kg oral once daily, 3 weeks after adm.
[18] = 100 mg/kg oral once daily, 6 weeks after adm.
[19] = 100 mg/kg oral once daily, before adm.

CC(C)OC(=O)C(C(=O)OC(C)C)=C1SCS1 [compound 1]
LD50 [1]: > 5000 mg/kg

CCOC(=O)C(C(=O)OC(C)C)=C1SCS1 [compound 2]
LD50 [1]: > 5000 mg/kg

CC(C)OC(=O)C(C(=O)OC(C)C)=C1SC(C(=O)O)S1 (stereo not shown) [compound 3]
LD50 [1]: > 5000 mg/kg | Acetoacetic acid in blood [2, 4]: 220 µmol/L | Blood sugar level [2, 4]: 38.4 mg/dL | Free fatty acids in blood [2, 4]: 416 μEq/l | Ketone bodies in urine [2, 4]: ++ | Acetoacetic acid in blood [2, 5]: 816 µmol/L | Blood sugar level [2, 5]: 34.0 mg/dL | Free fatty acids in blood [2, 5]: 306 μEq/l | Ketone bodies in urine [2, 5]: + | Acetoacetic acid in blood [2, 6]: 400 µmol/L | Blood sugar level [2, 6]: 43.3 mg/dL | Free fatty acids in blood [2, 6]: 418 μEq/l | Ketone bodies in urine [2, 6]: + | Acetoacetic acid in blood [2, 7]: 628 µmol/L | Blood sugar level [2, 7]: 33.0 mg/dL | Free fatty acids in blood [2, 7]: 1,423 μEq/l | Ketone bodies in urine [2, 7]: +++

CC(C)OC(=O)C(C(=O)OC(C)C)=C1SC=CS1 [compound 4]
LD50 [3]: 3,120 mg/kg | Acetoacetic acid in blood [2, 8]: 50 µmol/L | Blood sugar level [2, 8]: 40.3 mg/dL | Free fatty acids in blood [2, 8]: 428 μEq/l | Ketone bodies in urine [2, 8]: ++ | Acetoacetic acid in blood [2, 9]: 142 µmol/L | Blood sugar level [2, 9]: 55.4 mg/dL | Free fatty acids in blood [2, 9]: 303 μEq/l | Ketone bodies in urine [2, 9]: + | Acetoacetic acid in blood [2, 10]: 146 µmol/L | Blood sugar level [2, 10]: 57.7 mg/dL | Free fatty acids in blood [2, 10]: 238 μEq/l | Ketone bodies in urine [2, 10]: - | Acetoacetic acid in blood [2, 11]: 446 µmol/L | Blood sugar level [2, 11]: 43.2 mg/dL | Free fatty acids in blood [2, 11]: 1,377 μEq/l | Ketone bodies in urine [2, 11]: +++

CC(C)OC(=O)C(C(=O)OC(C)C)=C1SCCS1 [compound 6, diisopropyl 1,3-dithiolan-2-ylindene malonate]
LD50 [3]: 1,350 mg/kg | Acetoacetic acid in blood [2, 4]: 630 µmol/L | Blood sugar level [2, 4]: 23.5 mg/dL | Free fatty acids in blood [2, 4]: 550 μEq/l | Ketone bodies in urine [2, 4]: ++ | Acetoacetic acid in blood [2, 5]: 156 µmol/L | Blood sugar level [2, 5]: 52.9 mg/dL | Free fatty acids in blood [2, 5]: 201 μEq/l | Acetoacetic acid in blood [2, 6]: 104 µmol/L | Blood sugar level [2, 6]: 59.0 mg/dL | Free fatty acids in blood [2, 6]: 351 μEq/l | Acetoacetic acid in blood [2, 7]: 662 µmol/L | Blood sugar level [2, 7]: 30.6 mg/dL | Free fatty acids in blood [2, 7]: 1,148 μEq/l | Ketone bodies in urine [2, 7]: +++ | Acetoacetic acid in blood [2, 12]: 1,344 μmol/1 | Blood sugar level [2, 12]: 34.3 mg/dL | Free fatty acids in blood [2, 12]: 556.6 μEq/l | Ketone bodies in urine [2, 12]: + | Acetoacetic acid in blood [2, 13]: 608 μmol/1 | Blood sugar level [2, 13]: 43.3 mg/dL | Free fatty acids in blood [2, 13]: 507.5 μEq/l | Ketone bodies in urine [2, 13]: - | Acetoacetic acid in blood [2, 14]: 102 μmol/1 | Blood sugar level [2, 14]: 64.8 mg/dL | Free fatty acids in blood [2, 14]: 118.2 μEq/l | Ketone bodies in urine [2, 14]: - | Acetoacetic acid in blood [2, 15]: 1,550 μmol/1 | Blood sugar level [2, 15]: 33.6 mg/dL | Free fatty acids in blood [2, 15]: 1,862.3 μEq/l | Ketone bodies in urine [2, 15]: +++

CC(C)OC(=O)C(C(=O)OC(C)C)=C1SCC[S+]1[O-] (stereo not shown) [compound 7]
LD50 [1]: > 6000 mg/kg

CC(C)OC(=O)C(C(=O)OC(C)C)=C1SCC(O)S1 (stereo not shown) [compound 8]
LD50 [1]: > 6590 mg/kg | Acetoacetic acid in blood [2, 16]: 260 µmol/L | Blood sugar level [2, 16]: 48.4 mg/dL | Free fatty acids in blood [2, 16]: 476 μEq/l | Ketone bodies in urine [2, 16]: + | Acetoacetic acid in blood [2, 17]: 586 µmol/L | Blood sugar level [2, 17]: 41.0 mg/dL | Free fatty acids in blood [2, 17]: 747 μEq/l | Ketone bodies in urine [2, 17]: + | Acetoacetic acid in blood [2, 18]: 76 µmol/L | Blood sugar level [2, 18]: 53.5 mg/dL | Free fatty acids in blood [2, 18]: 371 μEq/l | Ketone bodies in urine [2, 18]: - | Acetoacetic acid in blood [2, 19]: 1,232 μmol/l | Blood sugar level [2, 19]: 32.0 mg/dL | Free fatty acids in blood [2, 19]: 1,727 μEq/l | Ketone bodies in urine [2, 19]: +++
